This experiment relates to PDCA cells (PANC-1, HS766T, PaCa9). Put plainly: In vitro PDCA cell proliferation (WST1), summary statements over the cell lines tested. The conditions noted are these: 10 μM; all cell lines tested. The class given is cell-based. The method, then:
PDA cell line (PANC-1 or HS766T) or patient cancer cells (PaCa9) were trypsinized with 1% trypsin in Hank's Balanced Salt Solution (HBSS), counted, washed, and resuspended in serum free AIM media (ThermoFisher Scientific, Waltham, MA) or complete Dulbecco's Modified Eagle Medium (DMEM) supplemented with 10% fetal bovine serum, […], 100 U/ml of penicillin G, and […] of streptomycin. Cells at a concentration of 2-4×10^4 cells/well in 100 μl culture medium were seeded in triplicate in 96 well plates, then cultured in a humidified incubator at 37° C. and 5% CO2. On the next day, cell supernatant was discarded and compounds (e.g., drugs) of the present disclosure in 200 μl medium were added with the concentrations indicated in the following Examples. After 72 hours of culture, cell proliferation reagent WST1 (20 μl/well, Sigma Aldrich Inc, St. Louis, MO) were added and plates were read using an ELISA reader at 2 hours and 4 hours under the wavelength of 450 nm. The measured absorbance (OD value) was recorded and graphed and statistically analyzed using GraphPad Prism 8, t-test, or t-test with Bonferroni correction.

The structures appear in SMILES notation.

As for `COc1ccc2c(c1OCc1ccccc1)C[C@@H](C(=O)O)N(C(=O)C(c1ccccc1)c1ccccc1)C2` [EMA401], the “Effective (statistically significant, p<0.05, decrease in cell proliferation by WST1 assay)” value was “effective in all cell lines tested”.

These data come from patent US12527785B2, “Renin-angiotensin-aldosterone system (RAAS) inhibitors in the treatment of pancreatic ductal carcinoma” (OCHSNER CLINIC FOUNDATION, priority 2023, dated 2026).
